Test results taken from patent US8202856B2 (Merck Serono SA, priority 2007, dated 2012).
Counter-ions that a name gives are not always drawn.

These compounds were tested against S1P1 receptor (Homo sapiens, UniProt P21453) (assay: 35S-GTPγS binding, membranes from CHO cells expressing S1P1). Conditions: CHO cell membranes expressing S1P1.
S1P1 receptor, sequence (P21453 whole entry): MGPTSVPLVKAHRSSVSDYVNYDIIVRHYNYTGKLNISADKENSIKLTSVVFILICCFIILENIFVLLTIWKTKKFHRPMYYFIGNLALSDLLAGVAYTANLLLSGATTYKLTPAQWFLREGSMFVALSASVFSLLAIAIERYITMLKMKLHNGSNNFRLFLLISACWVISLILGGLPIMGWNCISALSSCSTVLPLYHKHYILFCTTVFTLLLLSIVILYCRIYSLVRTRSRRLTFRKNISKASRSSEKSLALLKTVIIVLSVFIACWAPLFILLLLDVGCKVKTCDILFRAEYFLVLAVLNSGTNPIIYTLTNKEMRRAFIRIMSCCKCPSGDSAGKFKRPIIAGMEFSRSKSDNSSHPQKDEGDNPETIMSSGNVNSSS
Format: biochemical
Method: Receptor binding assay: Membranes were prepared from CHO cells expressing S1P1 or S1P3 for use in ligand and 35S-GTPTS binding studies. Cells were suspended in 50 mM TRIS, pH 7.4, 2 mM EDTA, 250 mM Sucrose (buffer A) and 1× Complete protease inhibitor cocktail (Roche), and disrupted at 4° C. by nitrogen decompression using a cell disruption bomb (Parr Instrument). Following centrifugation at 1000 RPM for 10 min at 4° C., the supernatant was suspended in buffer A and centrifuged again at 19000 RPM for 60 min at 4° C. The pellet was then suspended in 10 mM HEPES, pH 7.4, 1 mM EDTA, 250 mM Sucrose (Buffer B), and 1× Complete EDTA-free protease inhibitor cocktail and homogenized using a potter. Membranes were flash frozen in liquid nitrogen and stored at −80° C. [33P]sphingosine 1-phosphate (3000 Ci/mmol; American Radiolabeled Chemicals, Inc.) was added to test compounds in DMSO. Membranes and WGA SPA beads (GE Healthcare) were added to give a final volume of 100 μl in 96-well plates with assay concentrations of […] [33P]sphingosine 1-phosphate (respectively for S1P1 or S1P3), 50 mM HEPES, pH 7.5, 5 mM MgCl2, 100 mM NaCl, 0.4% fatty acid-free BSA, 1-5 μg/well of proteins and 100 μg/well of WGA SPA beads. Binding was performed for 60 min at room temperature on a shaker and bound radioactivity was measured on a PerkinElmer 1450 MicroBeta counter. Specific binding was calculated by subtracting remaining radioactivity in the presence of 1000-fold excess of unlabeled S1P. Binding data were analyzed using the GraphPad Prism program.
Measurements of ^35S-GTPγS Binding: Membranes (1 to 10 μg protein) prepared as described above, were incubated in 96-well Scintiplates (PerkinElmer) with test compounds diluted in DMSO, in 180 μl of 20 mM HEPES, pH 7.4, 10 mM MgCl2, 2 μg/well Saponin, 0.2% fatty acid free BSA (Assay buffer), 140 mM NaCl and 1.7 μM GDP. The assay was initiated with the addition of 20 μl of 1.5 nM [35S]-GTPγS (1100 Ci/mmol; GE Healthcare) in assay buffer. After 60 min incubation at 30° C. on a shaker, plates were centrifuged for 10 min at 2000 RPM. Supernatant was discarded and membrane bound radioactivity was measured on a PerkinElmer 1450 MicroBeta counter. Triplicate samples were averaged and expressed as response relative to S1P activation in absence of compound (n=2).
With `Cc1cc(CCC(=O)O)ccc1-c1noc(-c2nnn(-c3ccccc3F)c2-c2ccccc2)n1` [Example 30, 3-(4-{5-[1-(2-Fluorophenyl)-5-phenyl-1H-1,2,3-triazole-4-yl]-1,2,4-oxadiazole-3-yl}-3-methylphenyl)propanoic acid] the EC50 was 0.709 µM. In the case of `CC(=O)N1CCC(c2noc(-c3nnn(-c4ccccc4F)c3-c3ccncc3)n2)CC1` [Example 55, 4-[4-[3-(1-acetylpiperidin-4-yl)-1,2,4-oxadiazol-5-yl]-1-(2-fluorophenyl)-1H-1,2,3-triazol-5-yl]pyridine], the EC50 is reported as 1.42 µM. `Fc1ccc(F)c(-c2noc(-c3nnn(-c4ccccc4F)c3CNCC3CC3)n2)c1` [Example 112, 1-cyclopropyl-N-{[4-[3-(2,5-difluorophenyl)-1,2,4-oxadiazol-5-yl]-1-(2-fluorophenyl)-1H-1,2,3-triazol-5-yl]methyl}methanamine] was tested, and the EC50 was 0.806 µM. Work on `Fc1ccccc1-n1nnc(-c2nc(-c3cccnc3)no2)c1-c1ccncc1` [Example 42, 3-{5-[1-(2-fluorophenyl)-5-pyridin-4-yl-1H-1,2,3-triazol-4-yl]-1,2,4-oxadiazol-3-yl}pyridine] yielded an EC50 of 0.042 µM. For `CN(CC(=O)O)Cc1ccc(-c2noc(-c3nnn(-c4ccccc4F)c3-c3ccncc3)n2)cc1` [Example 130, N-(4-{5-[1-(2-fluorophenyl)-5-pyridin-4-yl-1H-1,2,3-triazol-4-yl]-1,2,4-oxadiazol-3-yl}benzyl)-N-methylglycine], the EC50 was 0.045 µM. Compound `Fc1ccccc1-n1nnc(-c2nc(-c3ccncc3)no2)c1C1CCCC1` [Example 72, 4-{5-[5-cyclopentyl-1-(2-fluorophenyl)-1H-1,2,3-triazol-4-yl]-1,2,4-oxadiazol-3-yl}pyridine] has an EC50 of 0.98 µM. For `Fc1ccccc1-n1nnc(-c2nc(-c3ccc4[nH]cnc4c3)no2)c1-c1ccncc1` [Example 155, 5-{5-[1-(2-fluorophenyl)-5-pyridin-4-yl-1H-1,2,3-triazol-4-yl]-1,2,4-oxadiazol-3-yl}-1H-benzimidazole], the EC50 was 0.251 µM. In the case of `COCc1c(-c2nc(-c3ccc(Cn4cncn4)cc3)no2)nnn1-c1ccccc1F` [Example 176, 5-[1-(2-fluorophenyl)-5-(methoxymethyl)-1H-1,2,3-triazol-4-yl]-3-[4-(1H-1,2,4-triazol-1-ylmethyl)phenyl]-1,2,4-oxadiazole], the EC50 is reported as 0.105 µM. In the case of `Fc1ccccc1-n1nnc(-c2nc(-c3cccc(C(F)(F)F)c3)no2)c1CN1CCOCC1` [Example 151, 4-[(1-(2-fluorophenyl)-4-{3-[3-(trifluoromethyl)phenyl]-1,2,4-oxadiazol-5-yl}-1H-1,2,3-triazol-5-yl)methyl]morpholine], the EC50 is reported as 0.34 µM. `CC(C)c1c(-c2nc(-c3cc(F)ccc3F)no2)nnn1-c1ccccc1F` [Example 63, 3-(2,5-difluorophenyl)-5-[1-(2-fluorophenyl)-5-isopropyl-1H-1,2,3-triazol-4-yl]-1,2,4-oxadiazole] was tested, and the EC50 was 0.31 µM. `Fc1ccccc1-n1nnc(-c2nc(-c3ccc(Cn4cncn4)cc3)no2)c1-c1ccncc1` [Example 172, 4-(1-(2-fluorophenyl)-4-{3-[4-(1H-1,2,4-triazol-1-ylmethyl)phenyl]-1,2,4-oxadiazol-5-yl}-1H-1,2,3-triazol-5-yl)pyridine] showed an EC50 of 0.005 µM. `O=C1Cc2cc(-c3noc(-c4nnn(-c5ccccc5F)c4-c4ccncc4)n3)ccc2N1` [Example 106, 5-{5-[1-(2-fluorophenyl)-5-pyridin-4-yl-1H-1,2,3-triazol-4-yl]-1,2,4-oxadiazol-3-yl}-1,3-dihydro-2H-indol-2-one] gave an EC50 of 0.018 µM. In the case of `Fc1ccccc1-n1nnc(-c2nc(-c3ccc(CN4CCC4)cc3)no2)c1-c1ccncc1` [Example 138, 4-[4-{3-[4-(azetidin-1-ylmethyl)phenyl]-1,2,4-oxadiazol-5-yl}-1-(2-fluorophenyl)-1H-1,2,3-triazol-5-yl]pyridine], the EC50 is reported as 0.021 µM. `Fc1ccccc1-n1nnc(-c2nc(-c3cccnc3)no2)c1C1CCCC1` [Example 79, 3-{5-[5-cyclopentyl-1-(2-fluorophenyl)-1H-1,2,3-triazol-4-yl]-1,2,4-oxadiazol-3-yl}pyridine] showed an EC50 of 0.23 µM. Work on `Fc1ccccc1-n1nnc(-c2nc(-c3ccccn3)no2)c1-c1ccncc1` [Example 45, 2-{5-[1-(2-fluorophenyl)-5-pyridin-4-yl-1H-1,2,3-triazol-4-yl]-1,2,4-oxadiazol-3-yl}pyridine] yielded an EC50 of 2.17 µM. Work on `COc1cc(CCC(=O)O)ccc1-c1noc(-c2nnn(-c3ccccc3F)c2-c2ccccc2)n1` [Example 29, 3-(4-{5-[1-(2-Fluorophenyl)-5-phenyl-1H-1,2,3-triazole-4-yl]-1,2,4-oxadiazole-3-yl}-3-methoxyphenyl)propanoic acid] yielded an EC50 of 1.27 µM. For `Fc1ccccc1-n1nnc(-c2nc(-c3ccc(CN4CC[C@H](F)C4)cc3)no2)c1-c1ccncc1` [Example 167, 4-{1-(2-fluorophenyl)-4-[3-(4-{[(3S)-3-fluoropyrrolidin-1-yl]methyl}phenyl)-1,2,4-oxadiazol-5-yl]-1H-1,2,3-triazol-5-yl}pyridine], the EC50 was 0.015 µM. Compound `Fc1ccccc1-c1noc(-c2nnn(-c3ccccc3F)c2Cc2ccccc2)n1` [Example 58, 5-[5-benzyl-1-(2-fluorophenyl)-1H-1,2,3-triazol-4-yl]-3-(2-fluorophenyl)-1,2,4-oxadiazole] has an EC50 of 1.16 µM. For `Fc1ccccc1-n1nnc(-c2nc(-c3ccc4c(c3)CCN4)no2)c1-c1ccncc1` [Example 156, 5-{5-[1-(2-fluorophenyl)-5-pyridin-4-yl-1H-1,2,3-triazol-4-yl]-1,2,4-oxadiazol-3-yl}indoline hydrochloride], the EC50 was 0.027 µM. `Fc1ccccc1-n1nnc(-c2nc(-c3ccc(C(F)(F)F)nc3)no2)c1-c1ccncc1` [Example 120, 5-{5-[1-(2-fluorophenyl)-5-pyridin-4-yl-1H-1,2,3-triazol-4-yl]-1,2,4-oxadiazol-3-yl}-2-(trifluoromethyl)pyridine] gave an EC50 of 0.754 µM. `Fc1ccccc1-c1noc(-c2nnn(-c3ccccc3F)c2C2CCCO2)n1` (stereo not shown) [Example 53, 3-(2-fluorophenyl)-5-[1-(2-fluorophenyl)-5-(tetrahydrofuran-2-yl)-1H-1,2,3-triazol-4-yl]-1,2,4-oxadiazole] was tested, and the EC50 was 0.211 µM. Compound `Fc1ccccc1-n1nnc(-c2nc(-c3ccc4c(c3)CNCC4)no2)c1-c1ccncc1` [Example 105, 7-{5-[1-(2-fluorophenyl)-5-pyridin-4-yl-1H-1,2,3-triazol-4-yl]-1,2,4-oxadiazol-3-yl}-1,2,3,4-tetrahydroisoquinoline] has an EC50 of 0.026 µM. With `O=C(O)[C@H]1CC[C@@H](NCc2ccc(-c3noc(-c4nnn(-c5ccccc5F)c4-c4ccncc4)n3)cc2)CC1` [Example 163] the EC50 was 0.08 µM. `CCN1CCc2ccc(-c3noc(-c4nnn(-c5ccccc5F)c4-c4ccncc4)n3)cc2C1` [Example 154, 2-ethyl-7-{5-[1-(2-fluorophenyl)-5-pyridin-4-yl-1H-1,2,3-triazol-4-yl]-1,2,4-oxadiazol-3-yl}-1,2,3,4-tetrahydroisoquinoline] was tested, and the EC50 was 0.918 µM. With `COCc1c(-c2nc(-c3ccc(Cn4ccnc4)cc3)no2)nnn1-c1ccccc1F` [Example 175, 5-[1-(2-fluorophenyl)-5-(methoxymethyl)-1H-1,2,3-triazol-4-yl]-3-[4-(1H-imidazol-1-ylmethyl)phenyl]-1,2,4-oxadiazole] the EC50 was 0.067 µM.
